Laboratory results published in US20080200372A1, “Glycosaminoglycan Peptides Derived From Connective Tissues And Use Thereof In The Prevention Of Arthritis And Other Degenerative Medical Conditions” (Institute of Nutraceutical Research Pty Ltd., priority 2004, published 2008).
Entries after “also recorded” stand apart in the source; their conditions may differ.

Assays:
[1] = test system: rat collagen induced arthritis (CIA) model; experiment: Rat type II collagen induced arthritis (CIA) model, prophylactic protocol (15 days oral administration); format: in vivo; conditions: 200 mg/kg oral, 15 days administration, measured on day 15 (FIG. 8, FIG. 14)
Protocol: According to the prophylactic protocol of evaluation, the pharmaceutical composition of the present invention is administered to the animals from the time the animals are injected with arthritogen and for a number of days thereafter. In one example the pharmaceutical composition is administered to the animal for between 1 and 15 days after administration of the arthritogen. In alternate examples of the invention the pharmaceutical composition is administered for example for 7, 10, 15 or 20 days after administration of the arthritogen. The scope of the present invention extends to the administration of the pharmaceutical composition for an appropriate period of time after administration of the arthritogen that is suitable to effect prophylaxis to prevent the onset of symptoms of a harmful immune response to the arthritogen. […] The body weight of animals, together with their tail and paw swelling, were determined every 48 h, the latter parameters being determined using callipers and results expressed in millimetres (mm). Arthritis development was also assessed from day 11 onwards using a macroscopic scoring scale whereby rear paw, fore paw, and tail swelling were scored on a scale 0-4+. […]

[2] = test system: rat collagen induced arthritis (CIA) model; experiment: Rat type II collagen induced arthritis (CIA) model, toleragenic protocol (7 days oral pre-administration); format: in vivo; conditions: for activity as toleragens in the rat CIA model: comparative study with CaP, FIG. 8
Protocol: In another example of the present invention, the tolerogenic protocol of evaluation of the pharmaceutical of the invention comprises administering the pharmaceutical composition to the animals prior to inducing arthritis by injection of the arthritogen. The pharmaceutical composition is administered for a period of time suitable to tolerize the animal. In one example the pharmaceutical composition is administered for 1 to 21 days prior to administration of the arthritogen. In one preferred example the pharmaceutical composition is administered for 1, 7, 10, 15 or 20 days prior to administration of the arthritogen. According to the toleragenic protocol for studying the activity of the pharmaceutical of the present invention, it is preferred that administration of the pharmaceutical composition ceases at the time that the arthritogen is administered.
Female Wistar rats (160-180 gm) were inoculated with 250 μg of the arthritogen, bovine tracheal collagen type-II dissolved in dilute acetic acid (0.01M) and applied as 6 divided injections into their tail base on day 0. The body weight of animals, together with their tail and paw swelling, were determined every 48 h, the latter parameters being determined using callipers and results expressed in millimetres (mm). Arthritis development was also assessed from day 11 onwards using a macroscopic scoring scale whereby rear paw, fore paw, and tail swelling were scored on a scale 0-4+. An overall arthritis score (0-4+) was also determined on the basis of overall inflammation and other signs of disease activity, e.g. piloerection, diminished mobility, poor grooming etc as described previously [Creamer M. et al. Collagen-induced arthritis in rats. J Immunology, 149:1045-1053, 1992]. […]

[3] = test system: haemorrhagic stomach lesions produced by ibuprofen in rats with CIA; experiment: Gastroprotective activity in the rat CIA model against haemorrhagic stomach lesions produced by ibuprofen; format: in vivo
Protocol: FIG. 18 provides a table (Table 1) of the results for testing gastroprotective activity of Calcium Peptacan in the Rat CIA Arthritis Model against haemorrhagic stomach lesions produced by oral administration of the non-steroidal anti-inflammatory drug, Ibufrofen (50 mg/kg) on day 20.
As discussed earlier the chronic use of NSAIDs by OA and RA patients is frequently associated with serious side effects in the gastrointestinal tract particularly with respect the induction of gastric bleeding. This effect was confirmed in an animal model by administering 50 mg/kg of the NSAID, ibuprofen, to rats in which CIA had been ongoing for 20 days [see FIG. 18—Table 1].

citrated human plasma = experiment: In vitro anticoagulant activity, activated partial thromboplastin time (aPTT); format: biochemical
Protocol: Pharmaceutical quality chondroitin sulfate were obtained from Bioiberica, Barcelona, Spain (ChS#1) and Sigma Chemical Co St Louis, Mo., USA (ChS#2). Calcium peptacan (CaP), and GAG-peptide (GAG-P), prepared as described herein, were evaluated for their anticoagulant activities using a commercial aPTT reagent (Actin FSL activated PTT reagent, Dade-Behring Margurg GmbH, Marburg, Germany) and a standard human plasma: (Ci-Trol Coagulation Control level 2, Dade-Behring Margurg GmbH, Marburg, Germany) according to the protocol supplied by the manufacturer. Stock solutions of the test preparations were dissolved in 0.025M calcium chloride and serially diluted in this buffer to correspond to the concentrations of 0-1.25 mg/mL. The aPTT times were determined by the addition of these solutions to a mixture of the Actin FSL reagent and control plasma held at 37° C. in cuvettes of a fibrin-timer (Dade-Behring Margurg GmbH, Marburg, Germany). This instrument quantitated the time in seconds for clot formation. All samples were assayed in duplicate and the mean values plotted against concentration using a semi-log scale.

[4] = test system: type II collagen (CII) arthritis (CIA) in mice; conditions: cited from earlier work

Cl.N[C@H]1C(O)O[C@H](CO)[C@@H](O)[C@@H]1O (stereo partly drawn) [GmHCl, Glucosamine Hydrochloride]
prophylactic effects on arthritis development (rear paw swelling, front paw inflammation, arthritis scores) [1]: CaP was the only preparation that demonstrated anti-arthritic activity | activity as toleragens in the rat CIA model [2]: inactive as toleragens

O=C(O)CC([S-])C(=O)O.[Au+] (stereo not drawn) [aurothiomalate]
gastro protective effectiveness ([3]; ibuprofen 50 mg/kg on day 20 of CIA, dose of test substance not given): only marginally effective

CC(C)Cc1ccc(C(C)C(=O)O)cc1 (stereo not drawn) [ibuprofen]
induction of gastric bleeding ([3]; 50 mg/kg to rats in which CIA had been ongoing for 20 days): confirmed

N[C@H]1C(O)O[C@H](CO)[C@@H](O)[C@@H]1O.O=S(=O)(O)O (stereo partly drawn) [GmSO4, Glucosamine Sulfate]
prophylactic effects on arthritis development (rear paw swelling, front paw inflammation, arthritis scores) [1]: CaP was the only preparation that demonstrated anti-arthritic activity | activity as toleragens in the rat CIA model [2]: inactive as toleragens

chondroitin sulfate [ChS #1]
anticoagulant effect (aPTT) (citrated human plasma; citrated human plasma, 0-1.25 mg/mL (FIG. 17)): strongest anticoagulant effect

chondroitin sulfate [ChS]
delayed-type hypersensitivity (DTH) reaction ([4]; at any dose (100, 300, 1000 mg/kg), mice): no effect | severity of the disease (hind paw oedema, synovitis, destruction of the articular cartilage) ([4]; only at the highest dose, 1000 mg/kg oral, mice): significantly reduced | incidence of arthritis ([4]; oral doses of 100, 300 and 1000 mg/kg for 14 days prior to inducing CIA in mice): failed to prevent the incidence of arthritis | concentration range over which anti-coagulant activity was exhibited (citrated human plasma; aPTT (FIG. 17)): 0.4 to 1.2 mg/mL | toleragenic effects on arthritis development (rear paw swelling, front paw inflammation, arthritis scores) ([2]; 20 mg/kg oral, 7 days pre-administration, measured on day 15 (FIG. 7, FIG. 9)): inactive as a toleragen; also recorded: no activity
